Measured values published in patent publication US20130150399A1, “INHIBITORS OF THE UNFOLDED PROTEIN RESPONSE AND METHODS FOR THEIR USE” (The Board of Trustees of the Leland Stanford Junior …, priority 2006, published 2013).

What was measured:
[1] = system: CHOP/GADD153; assay: Western blot of CHOP/GADD153, hypoxic HT1080 cells; format: cell-based, human; conditions: 2.5 μM; hypoxia for 6-12 hours
Experimental: (§1) Cells (2×10^6) were cultured in 10-cm dishes, collected using a cell scraper at 4° C., and lysed by addition of 150 μl cell lysis buffer [50 mM Tris pH 7.4, 150 mM NaCl, 10% glycerol, 0.5% Triton X-100. 0.5% NP-40, 2 mM Na3VO4, 20 mM beta-glycerophosphate, 10 mM NaF, 1 mM DTT, 1 mM PMSF). Lysates were centrifuged for 5 min at 10,000×g, and proteins (˜40 μg) were resolved by SDS-PAGE followed by semi-dry transfer to nitrocellulose membranes. Membranes were blocked in TBS-5% milk supplemented with 0.1% Tween-20. The blots were then probed overnight with relevant antibodies, washed, and incubated for 2 hours with species-specific secondary antibodies conjugated to horseradish peroxidase. After washing in block solution, immunoreactive material was detected by enhanced chemiluminescence (SuperSignal West Dura Extended, Pierce, Inc., Rockville, Ill.).
(§2) A. Effect of irestatin 9389 on PERK and ATF6 pathways. […] Protein lysates were analyzed by Western blot analysis using antisera specific for ATF6 (top), CHOP/GADD153 (middle) or actin (bottom). […] Cells were harvested, counted, and allowed to grow under normal culture conditions for 11-12 days. […] D. Quantification of clonogenic survival assay. […] F. Quantification of TUNEL-positive cells. […] Cells were harvested at the indicated times and counted by hemocytometer. Values represent the mean calculated from triplicate experiments+/−SEM. […]

[2] = system: caspase-3; assay: Cleavage of caspase-3, HT1080 cells; format: cell-based, human; conditions: 2.5 μM
Experimental: as §1, §2

[3] = system: HT1080 cells; assay: TUNEL staining, HT1080 cells under hypoxia; format: cell-based, human; conditions: 2.5 μM; 48 hours of hypoxia
Experimental: A. Effect of irestatin 9389 on PERK and ATF6 pathways. HT1080 cells were treated with vehicle alone (lanes 1-4) or 2.5 μM irestatin 9389 (lanes 5-8) and cultured under aerobic conditions for 18 hours (N) or shifted to hypoxia for the indicated times. Protein lysates were analyzed by Western blot analysis using antisera specific for ATF6 (top), CHOP/GADD153 (middle) or actin (bottom). Arrow indicates the cleaved, transcriptionally active form of ATF6. B. Cleavage of caspase-3 in irestatin-treated cells under hypoxia. HT1080 cells were cultured in normoxia (N) or under hypoxia for 36 hours (H 36) in absence or presence of irestatin 9389 (2.5 μM). Arrows indicate proteolytically cleaved caspase-3. C. Colony formation assay. HT1080 cells were treated as in B under normoxia (N) or hypoxia for 48 hours (H 48). Cells were harvested, counted, and allowed to grow under normal culture conditions for 11-12 days. Colonies were visualized with crystal violet staining. D. Quantification of clonogenic survival assay. Values represent the mean+/−SEM from at least 4 independent experiments. E. TUNEL staining of cells treated as in C. F. Quantification of TUNEL-positive cells. Values represent the mean+/− SEM from at least 3 experiments. […] Cells were harvested at the indicated times and counted by hemocytometer. Values represent the mean calculated from triplicate experiments+/−SEM. […]

[4] = system: HT1080 fibrosarcoma; assay: Cell proliferation assay, HT1080; format: cell-based, human; conditions: normal conditions; same concentrations
Experimental: A. Effect of irestatin 9389 on PERK and ATF6 pathways. HT1080 cells were treated with vehicle alone (lanes 1-4) or 2.5 μM irestatin 9389 (lanes 5-8) and cultured under aerobic conditions for 18 hours (N) or shifted to hypoxia for the indicated times. Protein lysates were analyzed by Western blot analysis using antisera specific for ATF6 (top), CHOP/GADD153 (middle) or actin (bottom). Arrow indicates the cleaved, transcriptionally active form of ATF6. B. Cleavage of caspase-3 in irestatin-treated cells under hypoxia. HT1080 cells were cultured in normoxia (N) or under hypoxia for 36 hours (H 36) in absence or presence of irestatin 9389 (2.5 μM). Arrows indicate proteolytically cleaved caspase-3. C. Colony formation assay. HT1080 cells were treated as in B under normoxia (N) or hypoxia for 48 hours (H 48). Cells were harvested, counted, and allowed to grow under normal culture conditions for 11-12 days. Colonies were visualized with crystal violet staining. D. Quantification of clonogenic survival assay. Values represent the mean+/−SEM from at least 4 independent experiments. E. TUNEL staining of cells treated as in C. F. Quantification of TUNEL-positive cells. Values represent the mean+/− SEM from at least 3 experiments. […] Cells were harvested at the indicated times and counted by hemocytometer. Values represent the mean calculated from triplicate experiments+/−SEM.

[5] = system: PANC1 pancreatic adenocarcinoma cells; assay: PANC1 tumor growth in vivo; parameters: species or system nude mice; conditions: 60 mg/kg ip bolus every 48 hours, 5 doses
Experimental: Dose: 60 mg/kg ip bolus injection every 48 hours. 5 total doses. 5-7 tumors per group. PANC1 pancreatic adenocarcinoma cell line.
PANC1 pancreatic adenocarcinoma cells were implanted subcutaneously into nude mice. Mice were then given a bolus injection of one of the inventive irestatins (1401, 9337, 3611 or 9389) at a dose of 60 mg/kg every 48 hours for a total of 5 doses, with 5-7 tumors being treated per group.

## Cc1csc(NC(=O)CSc2nc3c(c(C(F)(F)F)c2C#N)CCC3)n1 [Compound 9389]
[1]
  expression of CHOP/GADD153: increased
[2]; 36 hours of hypoxia
  cleavage of caspase-3: stimulated cleavage of caspase-3
[2]; normal oxygen conditions
  caspase-3 processing: no effect on caspase-3 processing
[3]
  TUNEL-positive cells: 35%
[4]
  growth rate of HT1080 cells: negligible effect on the growth rate
[5]
  tumor growth: significant tumor growth was observed in untreated mice, but not in mice treated with the irestatins
